Values quoted from earlier work as cited in US8361760B2, “Microbial production of 3-hydroxyacids from glucose and glycolate” (Massachusetts Institute of Technology, priority 2009, dated 2013).

System: CoA-transferase
Set-up: Relative activity: concentration or dose not given beside the values
Details: CoA-transferase activity with carboxylic acid added; for Relative activity: relative to None = 100; for Specific Activity: None = 34.1 units/mg

Structure (SMILES) | Relative activity [%] | Specific Activity [units/mg]
O=C(O)/C=C/C(=O)O [Fumarate] | 96 | 32.8
O=C(O)/C=C/CC(=O)O [(E)-Glutaconate] | 94 | 32.1
CCC(=O)O [Propionate] | 20 | 6.8
C[C@@H](O)C(=O)O [(R)-Lactate] | 27 | 9.1
O=C(O)CCC(=O)O [Succinate] | 87 | 29.6
C[C@H](O)C(=O)O [(S)-Lactate] | 46 | 15.8
C=CC(=O)O [Acrylate] | 37 | 12.7
O=C(O)CC[C@@H](O)C(=O)O [(R)-2-Hydroxyglutarate] | 87 | 29.6
